Laboratory results from PubChem BioAssay (NCI).
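96-well plates; 48 h exposure; 5 concentrations. Endpoints by linear interpolation between flanking doses. Not reached: highest tested concentration assigned. The concentration for full growth arrest is given as TGI.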

Tests used:
Assay in all cases: inhibition of tumour cell growth, NCI panel, 48 h
M14 melanoma = tested on: M14 melanoma
OVCAR-4 ovarian = tested on: OVCAR-4 ovarian
PC-3 prostate = tested on: PC-3 prostate
A498 renal = tested on: A498 renal
OVCAR-5 ovarian = tested on: OVCAR-5 ovarian
SK-MEL-5 melanoma = tested on: SK-MEL-5 melanoma
K-562 leukemia = tested on: K-562 leukemia
M19-MEL melanoma = tested on: M19-MEL melanoma
LXFL 529 NSCLC = tested on: LXFL 529 NSCLC
DMS 114 small cell lung = tested on: DMS 114 small cell lung
DLD-1 colon = tested on: DLD-1 colon
SNB-78 CNS = tested on: SNB-78 CNS
DMS 273 small cell lung = tested on: DMS 273 small cell lung

Row | SMILES | TGI (M14 melanoma) [µM] | TGI (OVCAR-4 ovarian) [µM] | TGI (PC-3 prostate) [µM] | TGI (A498 renal) [µM] | TGI (OVCAR-5 ovarian) [µM] | TGI (SK-MEL-5 melanoma) [µM] | TGI (K-562 leukemia) [µM] | TGI (M19-MEL melanoma) [µM] | TGI (LXFL 529 NSCLC) [µM] | TGI (DMS 114 small cell lung) [µM] | TGI (DLD-1 colon) [µM] | TGI (SNB-78 CNS) [µM] | TGI (DMS 273 small cell lung) [µM]
1 | N#Cc1ccnc(C(=O)N2CCCC2C(=O)O)c1 (stereo not drawn) | > 100 | > 100 | > 100 | > 100 | > 100 | > 100 | > 100 | – | – | – | – | – | –
2 | CO[C@H](C)[C@](O)(C(=O)OCC1=CCN2CC[C@@H](O)[C@H]12)C(C)C | > 100 | > 100 | > 100 | > 100 | > 100 | > 100 | > 100 | – | – | – | – | – | –
3 | Brc1ccc2[nH]cc(-c3csc(-c4c[nH]c5ccc(Br)cc45)n3)c2c1 | 2.87 | 7.59 | 4.44 | 6.03 | 5.6 | 3.14 | 3.43 | – | – | – | – | – | –
4 | O=C(O)C12C3C4(C(=O)O)C1C1(C(=O)O)C2C3(C(=O)O)C41 (stereo not drawn) | > 100 | > 100 | > 100 | > 100 | > 100 | > 100 | > 100 | – | – | – | – | – | –
5 | COc1cc(/C=C2/C(=O)N(C(=O)c3ccccc3O)N=C2C)ccc1O | 35.3 | > 100 | > 100 | – | > 100 | > 42.1 | > 100 | > 100 | > 100 | 7.73 | > 100 | – | –
6 | Cn1c2ccccc2c2c3c(=O)[nH][nH]c(=O)c3c3c4ccccc4n(C)c3c21 | > 100 | > 100 | > 100 | > 100 | > 100 | > 100 | > 100 | – | – | – | – | – | –
7 | COC(=O)c1ccc2cc(O)ccc2c1 | > 100 | > 100 | > 100 | > 100 | > 100 | > 100 | > 100 | – | – | – | – | – | –
8 | NC(=O)c1ncn(C2OC(CO)C(O)C2O)c1NC(=S)NC(=O)c1ccccc1 (stereo not drawn) | > 100 | > 100 | – | > 100 | > 100 | > 100 | > 100 | > 100 | > 100 | > 100 | > 100 | > 100 | > 100
9 | O=C(O)C(CS)N=Cc1nc(-c2ccccc2)oc1O (stereo not drawn) | > 100 | > 100 | – | > 100 | > 100 | > 100 | > 100 | > 100 | > 100 | > 100 | > 100 | > 100 | > 100
10 | O=C1c2c(Br)sc(Br)c2[C@H]2OC(=S)N[C@@H]12 | 4.1 | 13.3 | 14 | 32.5 | 32.4 | 23.8 | 6.35 | – | – | – | – | – | –
11 | Nc1cc2nc(-c3ccccc3)cn2cn1 | > 100 | > 100 | > 100 | 80.3 | > 100 | > 100 | > 100 | – | – | – | – | – | –
12 | Cc1ccc(N2C(=O)/C(=C3\Sc4c(nc(C)n(C)c4=O)N3c3ccccc3)SC2=S)cc1 | > 100 | > 100 | – | 69 | > 100 | > 100 | > 100 | > 100 | > 100 | 95.1 | – | > 100 | > 100
13 | O=c1[nH]nc(-c2ccc([N+](=O)[O-])cc2)[nH]1 | > 100 | > 100 | > 100 | > 100 | > 100 | – | > 100 | – | – | – | – | – | –
14 | O=C1CCC(CCc2nc3ccccc3[nH]2)(c2ccccc2)C(=O)N1 (stereo not drawn) | > 100 | > 100 | > 100 | > 100 | > 100 | > 100 | > 100 | – | – | – | – | – | –
15 | CC1=NN(c2cccc(Cl)c2)C2(C1=Cc1ccc(N(C)C)cc1)C(Cl)C(=O)N2c1nc2ccccc2s1 (stereo not drawn) | > 100 | > 100 | > 100 | > 100 | > 100 | > 100 | > 100 | – | – | – | – | – | –
16 | CCCCCc1cc(CCCC)sc1-c1ccco1 | > 100 | > 100 | > 100 | > 100 | > 100 | > 100 | > 100 | – | – | – | – | – | –
17 | COc1ccc2c(c1)CCC(CN1CCN(CCOC(c3ccccc3)c3ccccc3)CC1)C2O (stereo not drawn) | 29.1 | 33.2 | 26.3 | 23.1 | 30.5 | 21.9 | 44.1 | – | – | – | – | – | –
18 | C=CCN(c1cc(OC)c2[nH]c(C(=O)O)c(C)c2c1[N+](=O)[O-])S(C)(=O)=O | > 100 | > 100 | > 100 | > 100 | > 100 | > 100 | > 100 | – | – | – | – | – | –
19 | O=C1CN(c2ccccc2)C(=O)C1C(=O)Nc1ccc(Cl)c(Cl)c1 (stereo not drawn) | 12.6 | 24.5 | – | – | 50.6 | 13.2 | 8.88 | 14.8 | 14.3 | 13.3 | 23 | – | 15.1
20 | CCOP(=O)(CC1OC(CO)C(O)C1O)OCC (stereo not drawn) | > 100 | > 100 | > 100 | > 100 | > 100 | > 100 | > 100 | – | – | – | – | – | –
21 | O=C1CCCC2=C1CC1=C(CCCC1=O)N2c1ccc(-c2ccccc2)cc1 | > 100 | > 100 | > 100 | > 100 | > 100 | > 100 | > 100 | – | – | – | – | – | –
22 | CC(Br)CN(CC(C)Br)c1ccc2c(c1)Cc1ccccc1-2 (stereo not drawn) | 24.3 | 25.9 | 22.7 | 26 | 34.9 | 25.2 | 33.2 | – | – | – | – | – | –
